In patent publication US11981677B2, “Further substituted triazolo quinoxaline derivatives” (Grünenthal GmbH, priority 2018, dated 2024):

Biological target: T1, Glucocorticoid Receptor (Homo sapiens, UniProt P04150)
T1 construct: expressed in transfected cells
T1 sequence (P04150 524-758 limits assumed): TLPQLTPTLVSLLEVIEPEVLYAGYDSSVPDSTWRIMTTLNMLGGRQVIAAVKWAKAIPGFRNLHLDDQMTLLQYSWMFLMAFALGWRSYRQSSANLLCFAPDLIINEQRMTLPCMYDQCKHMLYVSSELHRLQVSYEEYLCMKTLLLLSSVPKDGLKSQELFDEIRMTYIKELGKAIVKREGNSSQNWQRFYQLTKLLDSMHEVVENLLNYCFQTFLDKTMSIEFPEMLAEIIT
Test: Agonistic mode of action on the glucocorticoid receptor (CHO-Gal4/GR luciferase reporter cell line)
Format: cell-based
Conditions: CHO-Gal4/GR luciferase reporter cells; observed in the agonistic assay or the antagonistic assay (mode not given); read-out: IC50 or EC50 range
Text: Potential selective glucocorticoid receptor modulators of this intervention can be tested for modulation of the activity of the glucocorticoid receptor using cell-based assays. These assays involve a Chinese hamster ovary (CHO) cell line which contains fragments of the glucocorticoid receptor as well as fusion proteins. The glucocorticoid receptor fragments used are capable of binding the ligand (e.g. beclomethasone) to identify molecules that compete for binding with glucocorticoid receptor ligands. In more detail, the glucocorticoid receptor ligand binding domain is fused to the DNA binding domain (DBD) of the transcriptionfactor GAL4 (GAL4 DBD-GR) and is stably integrated into a CHO cell line containing a GAL4-UAS-Luciferase reporter construct. […] After cell lysis the luminescence that is produced by luciferase after addition of the substrate is detected and EC50 or IC50 values can be calculated. Engagement of molecules which induce gene expression via glucocortocoid receptor binding to the DNA leads to expression of the luciferase gene under the control of the fusion protein GAL4 DBD-GR and therefore to a dose-dependent increase of the luminescence signal. Binding of molecules which repress beclomethasone-induced gene expression of the luciferase gene under the control of the fusion protein GAL4 DBD-GR leads to a dose-dependent reduction of the luminescence signal.
The reporter cell line CHO-Gal4/GR consisted of a chinese hamster ovary (CHO) cell line (Leibniz Institute DSMZ—German Collection of Microorganisms and Cell Cultures GmbH: ACC-110) containing a firefly luciferase gene under the control of the GR ligand binding domain fused to the DNA binding domain (DBD) of GAL4 (GAL4 DBD-GR) stably integrated into CHO cells. This cell line was established by stable transfection of CHO cells with a GAL4-UAS-Luciferase reporter construct. In a subsequent step the ligand binding domain of the GR cloned into pIRES2-EGFP-GAL4 containing the DNA binding domain of GAL4 from pFA-AT2 was transfected. This fusion construct activated firefly luciferase expression under the control of a multimerized GAL4 upstream activation sequence (UAS). The signal of the emitted luminescence was recorded by the FLIPR^TETRA. This allowed for specific detection of ligand-induced activation of the GR and therefore for the identification of compounds with agonistic properties. The GAL4/UAS reporter was premixed with a vector that constitutively expressed Renilla luciferase, which served as an internal positive control for transfection efficiency.
The complete culture medium for the assay was: • DMEM F-12 (1:1) MIXTURE (LONZA cat. No: BE04-687F/U1) 500 mL • 5 mL of 100 mM Sodium Pyruvate (LONZA cat. No: BE12-115E) • 25 mL of 7.5% Sodium Bicarbonate (LONZA cat. No BE17-613E) • 6.5 mL of 1 M Hepes (LONZA cat. No: BE17-737E) • 5 mL of 100× Penicillin/Streptomycin (LONZA cat. No DE17-602E) • 50 mL of Fetal Bovine Serum (Euroclone cat. No ECS 0180L) • 0.25 mL of 10 mg/mL Puromycin (InvivoGen cat.: ant-pr-1) • 0.5 mL of 100 mg/mL Zeocin (InvivoGen cat.: ant-zn-1)
Cryo-preserved CHO-Gal4/GR cells were suspended in complete medium and 5000 cells/25 μl/well were seeded into the wells of 384-well polystyrene assay plates (Thermo Scientific, cat. #4332) and cultured at 37° C., 5% CO2 and 95% humidity. After 24 hours growth medium was carefully removed and replaced by 30111 Opti-MEM (GIBCO, cat. #31985062) as assay buffer. To test the compounds an 8-point half-log compound dilution curve was generated in 100% DMSO starting from a 2 mM stock and compounds were then diluted 1:50 in Opti-MEM. 10111 of compounds were then added to the wells containing 30 μl Opti-MEM resulting in a final assay concentration range from 10 μM to 0.003 μM in 0.5% DMSO. Compounds were tested at 8 concentrations in quadruplicate data points. […] Finally, cells were lysed with 20 μl of Triton/Luciferin solution and the signal of the emitted luminescence was recorded at the FLIPR^TETRA for 2 minutes. […]

IC50 or EC50 (antagonist or agonist mode, not stated per compound) [nM]	Structure (SMILES)
1000 to 15000	Cc1c(-c2cc(F)cc3c2ccn3CCO)cc(F)c2c1-n1c(C3CC3)nnc1C(C)(C)N2 [Example 65, 2-[4-(1-Cyclopropyl-6-fluoro-4,4,9-trimethyl-5H-[1,2,4]triazolo[4,3-a]quinoxalin-8-yl)-6-fluoro-1H-indol-1-yl]-EtOH]
100 to 1000	COc1c(-c2cccc3c2ccn3C2CC2)cc(F)c2c1-n1c(C)nnc1C(C)(C)N2 [Example 511, 8-(1-Cyclopropyl-1H-indol-4-yl)-6-fluoro-9-methoxy-1,4,4-trimethyl-5H-[1,2,4]triazolo[4,3-a]quinoxaline]
100 to 1000	Cc1c(-c2ccc(F)c3[nH]ccc23)cc(F)c2c1-n1c(C)nnc1C(C)(C)N2 [Example 490, 6-fluoro-8-(7-fluoro-1H-indol-4-yl)-1,4,4,9-tetramethyl-4,5-dihydro-[1,2,4]triazolo[4,3-a]quinoxaline]
< 100	Cc1c(-c2cccc3c2ccn3S(=O)(=O)C2CC2)cc(F)c2c1-n1c(C)nnc1C(C)(C)N2 [Example 391, 8-[1-(Cyclopropylsulfonyl)-1H-indol-4-yl]-6-fluoro-1,4,4,9-tetramethyl-5H-[1,2,4]triazolo[4,3-a]quinoxaline]
100 to 1000	CNc1c(-c2cccc3c2ccn3C2CC2)cc(F)c2c1-n1c(C)nnc1C(C)(C)N2 [Example 481, 8-(1-cyclopropyl-1H-indol-4-yl)-6-fluoro-N,1,4,4-tetramethyl-4,5-dihydro-[1,2,4]triazolo[4,3-a]quinoxalin-9-amine]
100 to 1000	CCS(=O)(=O)n1ccc2c(-c3cc(F)c4c(c3C(F)F)-n3c(C)nnc3C(C)(C)N4)cccc21 [Example 461, 9-(Difluoro-methyl)-8-[1-(ethylsulfonyl)-1H-indol-4-yl]-6-fluoro-1,4,4-trimethyl-5H-[1,2,4]triazolo[4,3-a]quinoxaline]
100 to 1000	Cc1c(-c2cccc3c2ccn3CCO)cc(F)c2c1-n1c(C)nnc1C(C)(C)N2 [Example 301, 2-[4-(6-Fluoro-1,4,4,9-tetramethyl-5H-[1,2,4]triazolo[4,3-a]quinoxalin-8-yl)-1H-indol-1-yl]-EtOH]
< 100	Cc1nnc2n1-c1c(C#N)c(-c3cccc4c3ccn4C3CC3)cc(F)c1NC2(C)C [Example 450, 8-(1-cyclopropyl-1H-indol-4-yl)-6-fluoro-1,4,4-trimethyl-4,5-dihydro-[1,2,4]triazolo[4,3-a]quinoxaline-9-carbonitrile]

More lines, now with the values behind:

Structure (SMILES)	IC50 or EC50 (antagonist or agonist mode, not stated per compound) [nM]
COc1c(-c2cc(F)cc3[nH]ccc23)cc(Cl)c2c1-n1c(C)nnc1C(C)(C)N2 [Example 488, 6-Chloro-8-(6-fluoro-1H-indol-4-yl)-9-methoxy-1,4,4-trimethyl-5H-[1,2,4]triazolo[4,3-a]quinoxaline]	< 100
Cc1c(-c2cc(F)cc3[nH]ccc23)cc(F)c2c1-n1c(C)nnc1C(C)(C)N2 [Example 465, 6-fluoro-8-(6-fluoro-1H-indol-4-yl)-1,4,4,9-tetramethyl-4,5-dihydro-[1,2,4]triazolo[4,3-a]quinoxaline]	< 100
Cc1c(-c2cccc3c2ccn3S(C)(=O)=O)c(F)c(Cl)c2c1-n1c(C)nnc1C(C)(C)N2 [Example 502, 6-Chloro-7-fluoro-1,4,4,9-tetramethyl-8-(1-methylsulfonyl-1H-indol-4-yl)-5H-[1,2,4]triazolo[4,3-a]quinoxaline]	< 100
Cc1c(-c2cc(F)cc3c(C4CC4)c[nH]c23)cc(F)c2c1-n1c(C)nnc1C(C)(C)N2 [Example 38, 8-(3-cyclopropyl-5-fluoro-1H-indol-7-yl)-6-fluoro-1,4,4,9-tetramethyl-4,5-dihydro-1-[1,2,4]triazolo[4,3-a]quinoxaline]	< 100
Cc1c(-c2cccc3c2cnn3S(C)(=O)=O)c(F)c(Cl)c2c1-n1c(C)nnc1C(C)(C)N2 [Example 509, 6-Chloro-7-fluoro-1,4,4,9-tetramethyl-8-(1-methylsulfonyl-1H-indazol-4-yl)-5H-[1,2,4]triazolo[4,3-a]quinoxaline]	100 to 1000
Cc1nnc2n1-c1c(c(F)cc(-c3cc(F)cc4c3ccn4S(C)(=O)=O)c1C(F)F)NC2(C)C [Example 455, 9-(difluoromethyl)-6-fluoro-8-(6-fluoro-1-(methylsulfonyl)-1H-indol-4-yl)-1,4,4-trimethyl-4,5-dihydro-[1,2,4]triazolo[4,3-a]quinoxaline]	< 100
COc1c(-c2ccc(F)c3[nH]ccc23)cc(F)c2c1-n1c(C)nnc1C(C)(C)N2 [Example 494, 6-Fluoro-8-(7-fluoro-1H-indol-4-yl)-9-methoxy-1,4,4-trimethyl-5H-[1,2,4]triazolo[4,3-a]quinoxaline]	100 to 1000
Cc1c(-c2cc(C#N)cc3[nH]ccc23)cc(F)c2c1-n1c(C)nnc1C(C)(C)N2 [Example 477, 4-(6-Fluoro-1,4,4,9-tetramethyl-5H-[1,2,4]triazolo[4,3-a]quinoxalin-8-yl)-1H-indole-6-carbonitrile]	100 to 1000
COc1c(-c2cc(F)cc3c2ccn3S(C)(=O)=O)cc(Cl)c2c1-n1c(C)nnc1C(C)(C)N2 [Example 483, 6-chloro-8-(6-fluoro-1-(methylsulfonyl)-1H-indol-4-yl)-9-methoxy-1,4,4-trimethyl-4,5-dihydro-[1,2,4]triazolo[4,3-a]quinoxaline]	< 100
COc1c(-c2cccc3c2ccn3S(=O)(=O)C2CC2)cc(F)c2c1-n1c(C)nnc1C(C)(C)N2 [Example 505, 8-[1-(Cyclopropylsulfonyl)-1H-indol-4-yl]-6-fluoro-9-methoxy-1,4,4-trimethyl-5H-[1,2,4]triazolo[4,3-a]quinoxaline]	100 to 1000
Cc1c(-c2cccc3c2cnn3S(C)(=O)=O)cc(Cl)c2c1-n1c(C)nnc1C(C)(C)N2 [Example 458, 6-Chloro-1,4,4,9-tetramethyl-8-(1-methylsulfonyl-1H-indazol-4-yl)-5H-[1,2,4]triazolo[4,3-a]quinoxaline]	100 to 1000
Cc1c(-c2cc(F)cc3c2ccn3S(=O)(=O)CC2CC2)cc(F)c2c1-n1c(C)nnc1C(C)(C)N2 [Example 497, 8-[1-(Cyclopropyl-methylsulfonyl)-6-fluoro-1H-indol-4-yl]-6-fluoro-1,4,4,9-tetramethyl-5H-[1,2,4]triazolo[4,3-a]quinoxaline]	< 100
Cc1nnc2n1-c1c(c(F)cc(-c3cc(F)cc4c3cnn4S(C)(=O)=O)c1C1CC1)NC2(C)C [Example 467, 9-Cyclopropyl-6-fluoro-8-(6-fluoro-1-methylsulfonyl-1H-indazol-4-yl)-1,4,4-trimethyl-5H-[1,2,4]triazolo[4,3-a]quinoxaline]	100 to 1000
